Source: patent US8680290B2, “Isoxazoline derivatives and their use as herbicides” (Syngenta Limited, priority 2004, dated 2014)

What was measured:
[1] = system: Monocotyledonous and dicotyledonous test plants; assay: Example B1 herbicidal action, application post-emergence (Table B1a); assay type: in vivo; conditions: 250 g/ha, evaluated after 3 weeks, scale 0-10
Protocol: (§1) Monocotyledonous and dicotyledonous test plants were sown in seed trays in standard soil. Immediately after sowing (pre-emergence) or after 8 to 9 days cultivation (post-emergence), the test compounds were applied by spraying in the form of an aqueous solution derived from the formulation of the technical active ingredient in 0.6 ml acetone and 45 ml formulation solution containing 10.6% Emulsogen EL (CAS RN 61791-12-6), 42.2% N-methylpyrrolidone, 42.2% dipropylene glycol monomethyl ether (CAS RN 34590-94-8) and 0.2% X-77 (CAS RN 11097-66-8). The test plants were then grown in a greenhouse under optimum conditions. After a test duration of 3 weeks (post-emergence) or 4 weeks (pre-emergence), the test was evaluated (10=total damage to plant, 0=no damage to plant).

[2] = system: Monocotyledonous and dicotyledonous test plants; assay: Example B1 herbicidal action, application pre-emergence (Table B1b); assay type: in vivo; conditions: 250 g/ha, evaluated after 4 weeks
Protocol: as §1

## CC1(C)CC(S(=O)(=O)C(F)(F)c2ccccc2[S+]([O-])C(F)(F)F)=NO1 (racemic) [1.69]
[1]
  herbicidal damage rating, Abutilon: 4
  herbicidal damage rating, Amaranthus: 3
  herbicidal damage rating, Digitaria: 8
  herbicidal damage rating, Panicum: 5
  herbicidal damage rating, Setaria: 7
  herbicidal damage rating, Sida: 5
[2]
  herbicidal action (damage rating 0-10), Amaranthus: 5
  herbicidal action (damage rating 0-10), Digitaria: 10
  herbicidal action (damage rating 0-10), Panicum: 10
  herbicidal action (damage rating 0-10), Setaria: 10
  herbicidal action (damage rating 0-10), Sida: 4

## CC1(C)CC(S(=O)(=O)C(F)(Cl)c2ccccc2C#N)=NO1 (racemic) [1.71]
[1]
  herbicidal damage rating, Abutilon: 0
  herbicidal damage rating, Amaranthus: 5
  herbicidal damage rating, Digitaria: 8
  herbicidal damage rating, Panicum: 0
  herbicidal damage rating, Setaria: 3
  herbicidal damage rating, Sida: 2
[2]
  herbicidal action (damage rating 0-10), Amaranthus: 10
  herbicidal action (damage rating 0-10), Digitaria: 9
  herbicidal action (damage rating 0-10), Panicum: 10
  herbicidal action (damage rating 0-10), Setaria: 9
  herbicidal action (damage rating 0-10), Sida: 5

## Cc1ccccc1C(F)(Cl)S(=O)(=O)C1=NOC(C)(C)C1 (racemic) [1.74]
[1]
  herbicidal damage rating, Abutilon: 0
  herbicidal damage rating, Amaranthus: 0
  herbicidal damage rating, Digitaria: 8
  herbicidal damage rating, Panicum: 5
  herbicidal damage rating, Setaria: 3
  herbicidal damage rating, Sida: 3
[2]
  herbicidal action (damage rating 0-10), Amaranthus: 5
  herbicidal action (damage rating 0-10), Digitaria: 9
  herbicidal action (damage rating 0-10), Panicum: 10
  herbicidal action (damage rating 0-10), Setaria: 9
  herbicidal action (damage rating 0-10), Sida: 7

## CC1(C)CC(S(=O)(=O)C(F)(Cl)c2ccccc2)=NO1 (racemic) [1.75]
[1]
  herbicidal damage rating, Abutilon: 5
  herbicidal damage rating, Amaranthus: 3
  herbicidal damage rating, Digitaria: 8
  herbicidal damage rating, Panicum: 5
  herbicidal damage rating, Setaria: 5
  herbicidal damage rating, Sida: 4
[2]
  herbicidal action (damage rating 0-10), Amaranthus: 10
  herbicidal action (damage rating 0-10), Digitaria: 10
  herbicidal action (damage rating 0-10), Panicum: 10
  herbicidal action (damage rating 0-10), Setaria: 10
  herbicidal action (damage rating 0-10), Sida: 7

## CC1(C)CC(S(=O)(=O)C(Br)c2c(F)cccc2C(F)(F)F)=NO1 (racemic) [1.80]
[1]
  herbicidal damage rating, Abutilon: 4
  herbicidal damage rating, Amaranthus: 0
  herbicidal damage rating, Digitaria: 8
  herbicidal damage rating, Panicum: 5
  herbicidal damage rating, Setaria: 7
  herbicidal damage rating, Sida: 5
[2]
  herbicidal action (damage rating 0-10), Amaranthus: 10
  herbicidal action (damage rating 0-10), Digitaria: 10
  herbicidal action (damage rating 0-10), Panicum: 10
  herbicidal action (damage rating 0-10), Setaria: 10
  herbicidal action (damage rating 0-10), Sida: 9

## COC(=O)c1ccc(C(F)(F)S(=O)(=O)C2=NOC(C)(C)C2)c(F)c1 [1.119]
[1]
  herbicidal damage rating, Abutilon: 3
  herbicidal damage rating, Amaranthus: 5
  herbicidal damage rating, Digitaria: 3
  herbicidal damage rating, Panicum: 7
  herbicidal damage rating, Setaria: 7
  herbicidal damage rating, Sida: 4

## CCOC(=O)c1ccc(C(F)(Cl)S(=O)(=O)C2=NOC(C)(C)C2)c(F)c1 (stereo not shown) [1.128]
[1]
  herbicidal damage rating, Abutilon: 2
  herbicidal damage rating, Amaranthus: 5
  herbicidal damage rating, Digitaria: 4
  herbicidal damage rating, Panicum: 7
  herbicidal damage rating, Setaria: 3
  herbicidal damage rating, Sida: 0

## COc1ccccc1C(F)(Cl)S(=O)(=O)C1=NOC(C)(C)C1 (stereo not shown) [1.142]
[1]
  herbicidal damage rating, Abutilon: 0
  herbicidal damage rating, Amaranthus: 0
  herbicidal damage rating, Digitaria: 8
  herbicidal damage rating, Panicum: 7
  herbicidal damage rating, Setaria: 5
  herbicidal damage rating, Sida: 3

## CC1(C)CC(S(=O)(=O)C(F)(Cl)c2ccccc2-c2ccccc2)=NO1 (stereo not shown) [1.149]
[1]
  herbicidal damage rating, Abutilon: 4
  herbicidal damage rating, Amaranthus: 4
  herbicidal damage rating, Digitaria: 5
  herbicidal damage rating, Panicum: 5
  herbicidal damage rating, Setaria: 3
  herbicidal damage rating, Sida: 5

## COCCC(c1c(F)cccc1F)S(=O)(=O)C1=NOC(C)(C)C1 (stereo not shown) [Compound No. 1.03]
[1]
  herbicidal damage rating, Abutilon: 0
  herbicidal damage rating, Amaranthus: 9
  herbicidal damage rating, Digitaria: 6
  herbicidal damage rating, Panicum: 9
  herbicidal damage rating, Sida: 5

## CC1(C)CC(S(=O)(=O)C(C(=O)C(F)F)c2c(F)cccc2F)=NO1 (stereo not shown) [Compound No. 1.57]
[2]
  herbicidal action (damage rating 0-10), Amaranthus: 9
  herbicidal action (damage rating 0-10), Digitaria: 8
  herbicidal action (damage rating 0-10), Panicum: 10
  herbicidal action (damage rating 0-10), Setaria: 8
  herbicidal action (damage rating 0-10), Sida: 6

## C=C(OC(C)=O)C(Cl)(c1c(F)cccc1F)S(=O)(=O)C1=NOC(C)(C)C1 (stereo not shown) [Compound No. 1.58]
[2]
  herbicidal action (damage rating 0-10), Amaranthus: 5
  herbicidal action (damage rating 0-10), Digitaria: 8
  herbicidal action (damage rating 0-10), Panicum: 9
  herbicidal action (damage rating 0-10), Setaria: 7
  herbicidal action (damage rating 0-10), Sida: 3

## CC1(C)CC(S(=O)(=O)C(C(=O)CCl)c2c(F)cccc2F)=NO1 (stereo not shown) [Compound No. 1.60]
[2]
  herbicidal action (damage rating 0-10), Amaranthus: 7
  herbicidal action (damage rating 0-10), Digitaria: 9
  herbicidal action (damage rating 0-10), Panicum: 10
  herbicidal action (damage rating 0-10), Setaria: 9
  herbicidal action (damage rating 0-10), Sida: 0

## CC(=O)O/C(C)=C(/c1c(F)cccc1F)S(=O)(=O)C1=NOC(C)(C)C1 [Compound No. 1.98, acetic acid 2-(2,6-difluoro-phenyl)-2-(5,5-dimethyl-4,5-dihydroisoxazole-3-sulfonyl)-1-methyl-vinyl ester]
[2]
  herbicidal action (damage rating 0-10), Amaranthus: 7
  herbicidal action (damage rating 0-10), Digitaria: 8
  herbicidal action (damage rating 0-10), Panicum: 9
  herbicidal action (damage rating 0-10), Setaria: 9
  herbicidal action (damage rating 0-10), Sida: 4

## COc1c(C(F)(F)S(=O)(=O)C2=NOC(C)(C)C2)c(C(F)(F)F)nn1C [Compound No. 2.23, 3-[difluoro-(5-methoxy-1-methyl-3-trifluoromethyl-1H-pyrazol-4-yl)-methanesulfonyl]-5,5-dimethyl-4,5-dihydroisoxazole]
[2]
  herbicidal action (damage rating 0-10), Amaranthus: 8
  herbicidal action (damage rating 0-10), Digitaria: 7
  herbicidal action (damage rating 0-10), Panicum: 8
  herbicidal action (damage rating 0-10), Setaria: 9
  herbicidal action (damage rating 0-10), Sida: 3

## Cc1nn(C)c(OCC(F)(F)F)c1C(F)S(=O)(=O)C1=NOC(C)(C)C1 (stereo not shown) [Compound No. 2.24]
[2]
  herbicidal action (damage rating 0-10), Amaranthus: 10
  herbicidal action (damage rating 0-10), Digitaria: 10
  herbicidal action (damage rating 0-10), Setaria: 10
  herbicidal action (damage rating 0-10), Sida: 5

## Cn1nc(C(F)(F)F)c(C([S+]([O-])C2=NOC(C)(C)C2)C(F)(F)F)c1OCC(F)(F)F (stereo not shown) [Compound No. 2.35, 5,5-dimethyl-3-{2,2,2-trifluoro-1-[1-methyl-5-(2,2,2-trifluoro-ethoxy)-3-trifluoromethyl-1H-pyrazol-4-yl]-ethanesulfinyl}-4,5-dihydro-isoxazole]
[2]
  herbicidal action (damage rating 0-10), Amaranthus: 10
  herbicidal action (damage rating 0-10), Digitaria: 10
  herbicidal action (damage rating 0-10), Panicum: 9
  herbicidal action (damage rating 0-10), Setaria: 5
  herbicidal action (damage rating 0-10), Sida: 0

## Cc1nsc(C#N)c1C(F)S(=O)(=O)C1=NOC(C)(C)C1 (stereo not shown) [Compound No. 3.01, 4-[(5,5-dimethyl-4,5-dihydroisoxazole-3-sulfonyl)-fluoromethyl]-3-methyl-isothiazole-5-carbonitrile]
[2]
  herbicidal action (damage rating 0-10), Amaranthus: 7
  herbicidal action (damage rating 0-10), Digitaria: 8
  herbicidal action (damage rating 0-10), Panicum: 10
  herbicidal action (damage rating 0-10), Setaria: 7
  herbicidal action (damage rating 0-10), Sida: 0

## Cc1nsc(C#N)c1C(F)(F)S(=O)(=O)C1=NOC(C)(C)C1 [Compound No. 3.02, 4-[(5,5-dimethyl-4,5-dihydroisoxazole-3-sulfonyl)-difluoro-methyl]-3-methyl-isothiazole-5-carbonitrile]
[2]
  herbicidal action (damage rating 0-10), Amaranthus: 7
  herbicidal action (damage rating 0-10), Digitaria: 10
  herbicidal action (damage rating 0-10), Panicum: 10
  herbicidal action (damage rating 0-10), Setaria: 10
  herbicidal action (damage rating 0-10), Sida: 0

## Cc1noc(C)c1C(Cl)S(=O)(=O)C1=NOC(C)(C)C1 (stereo not shown) [Compound No. 3.03]
[2]
  herbicidal action (damage rating 0-10), Amaranthus: 7
  herbicidal action (damage rating 0-10), Digitaria: 9
  herbicidal action (damage rating 0-10), Panicum: 10
  herbicidal action (damage rating 0-10), Setaria: 10
  herbicidal action (damage rating 0-10), Sida: 0

## Cc1noc(C)c1C(Cl)(Cl)S(=O)(=O)C1=NOC(C)(C)C1 [Compound No. 3.04]
[2]
  herbicidal action (damage rating 0-10), Amaranthus: 3
  herbicidal action (damage rating 0-10), Digitaria: 9
  herbicidal action (damage rating 0-10), Panicum: 10
  herbicidal action (damage rating 0-10), Setaria: 9
  herbicidal action (damage rating 0-10), Sida: 0

## COc1cc(C(Cl)S(=O)(=O)C2=NOC(C)(C)C2)on1 (stereo not shown) [Compound No. 5.01, 5-[chloro-(5,5-dimethyl-4,5-dihydroisoxazole-3-sulfonyl)-methyl]-3-methoxy-isoxazole]
[2]
  herbicidal action (damage rating 0-10), Amaranthus: 0
  herbicidal action (damage rating 0-10), Digitaria: 8
  herbicidal action (damage rating 0-10), Setaria: 8
  herbicidal action (damage rating 0-10), Sida: 2
